Where a name gives a salt, the structure may show the parent alone.
Columns and labels:
[1] = system: p-p38 in HCT-116 cells; assay: Phospho-p38 Meso Scale ELISA assay, TNFα-stimulated HCT-116 cells; assay type: cell-based; settings: Homo sapiens, read-out: mean HCT-116 p-p38 ELISA IC50 (Col. C)
In short: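 HCT-116 cells in 1% FCS medium for 2 h, then compound for 4 h at 37° C, then TNFα at 10 ng/mL final for 10 min. Lysates captured overnight at 4° C and phospho-p38 quantified by Meso Scale electrochemiluminescence ELISA.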

[2] = target: T1, TAK1-TAB1 fusion protein (Homo sapiens, UniProt O43318); assay: TAK1 biochemical assay (AlphaScreen, GST-MAP2K7 substrate); settings: TAK1-TAB1 fusion protein, GST-MAP2K7 substrate; read-out: mean TAK1 IC50 (Col. A)
T1 construct: purchased Carna
T1 sequence (O43318 with tags, fused parts or gaps limits assumed): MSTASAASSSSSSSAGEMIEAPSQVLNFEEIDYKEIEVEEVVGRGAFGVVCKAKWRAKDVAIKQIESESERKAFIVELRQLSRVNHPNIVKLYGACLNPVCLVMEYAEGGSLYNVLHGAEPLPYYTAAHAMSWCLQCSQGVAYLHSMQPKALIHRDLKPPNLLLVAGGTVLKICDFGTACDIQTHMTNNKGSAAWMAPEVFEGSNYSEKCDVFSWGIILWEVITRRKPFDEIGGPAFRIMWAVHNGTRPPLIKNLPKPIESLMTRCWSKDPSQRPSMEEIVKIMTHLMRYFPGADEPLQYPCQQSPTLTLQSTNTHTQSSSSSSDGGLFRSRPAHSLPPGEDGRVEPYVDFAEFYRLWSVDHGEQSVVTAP

[3] = system: pJNK in HCT-116 cells; assay: Phospho-JNK (Thr183/Tyr185) Meso Scale ELISA assay, TNFα-stimulated HCT-116 cells; assay type: cell-based; settings: Homo sapiens, read-out: mean HCT-116 pJNK ELISA IC50 (Col. B)
In short: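 HCT-116 cells in 1% FCS medium were pretreated with compound for 4 hrs at 37° C, then stimulated with TNFα at 10 ng/mL final for 10 minutes. Lysates were taken in ice-cold lysis buffer with phosphatase and protease inhibitors, and phospho-JNK (Thr183/Tyr185) was measured by Meso Scale ELISA.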

## CNc1ncc(-c2cnn(C3CCN(C(C)=O)CC3)c2)c2cc(-c3c[nH]c4cnccc34)oc12 [Example 280, 1-(4-{4-[7-(methylamino)-2-(1H-pyrrolo[2,3-c]pyridin-3-yl)furo[2,3-c]pyridin-4-yl]-1H-pyrazol-1-yl}piperidin-1-yl)ethanone trifluoroacetic acid salt]
[1]
  IC50: 100 to 1000 nM
[2]
  IC50: < 100 nM
[3]
  IC50: 1000 to 10000 nM

## Nc1ncc(-c2cnn([C@@H]3C[C@@H](O)[C@@H](O)C3)c2)c2cc(-c3csc4cnccc34)oc12 [Example 311, rel-(1R,2S,4S)-4-[4-(7-amino-2-thieno[2,3-c]pyridin-3-yl-furo[2,3-c]pyridin-4-yl)-pyrazol-1-yl]-cyclopentane-1,2-diol]
[1]
  IC50: 100 to 1000 nM
[2]
  IC50: < 100 nM
[3]
  IC50: 100 to 1000 nM

## CC(=O)N1CCC(n2cc(-c3cnc(N)c4oc(-c5cccc(CO)c5)cc34)cn2)CC1 [Example 169, 1-[4-(4-{7-amino-2-[3-(hydroxymethyl)phenyl]furo[2,3-c]pyridin-4-yl}-1H-pyrazol-1-yl)piperidin-1-yl]ethanone]
[1]
  IC50: 1000 to 10000 nM
[2]
  IC50: 100 to 1000 nM
[3]
  IC50: 100 to 1000 nM

## CS(=O)(=O)CCN1CCC(n2cc(-c3cnc(N)c4oc(-c5cccc6cnccc56)cc34)cn2)CC1 [Example 82, 2-(isoquinolin-5-yl)-4-(1-{1-[2-(methylsulfonyl)ethyl]piperidin-4-yl}-1H-pyrazol-4-yl)furo[2,3-c]pyridin-7-amine]
[1]
  IC50: 100 to 1000 nM
[2]
  IC50: 100 to 1000 nM
[3]
  IC50: 100 to 1000 nM

## Nc1ncc(-c2cnn([C@H]3CC[C@H](O)CC3)c2)c2cc(-c3cccc4cnsc34)oc12 [Example 234, trans-4-{4-[7-amino-2-(1,2-benzothiazol-7-yl)furo[2,3-c]pyridin-4-yl]-1H-pyrazol-1-yl}cyclohexanol]
[1]
  IC50: 100 to 1000 nM
[2]
  IC50: < 100 nM
[3]
  IC50: < 100 nM

## CC(=O)N1CCC(n2cc(-c3cnc(N)c4oc(-c5cccc6nnsc56)cc34)cn2)CC1 [Example 224, 1-(4-{4-[7-amino-2-(1,2,3-benzothiadiazol-7-yl)furo[2,3-c]pyridin-4-yl]-1H-pyrazol-1-yl}piperidin-1-yl)ethanone diformate salt]
[1]
  IC50: < 100 nM
[2]
  IC50: < 100 nM
[3]
  IC50: < 100 nM

## CC(=O)N1CCC(n2cc(-c3cnc(N)c4oc(-c5cccc6cnccc56)cc34)cn2)CC1 [Example 81, 1-(4-{4-[7-amino-2-(isoquinolin-5-yl)furo[2,3-c]pyridin-4-yl]-1H-pyrazol-1-yl}piperidin-1-yl)ethanone]
[1]
  IC50: 100 to 1000 nM
[2]
  IC50: 100 to 1000 nM
[3]
  IC50: 100 to 1000 nM

## Nc1ncc(-c2cnn(C3CCNCC3)c2)c2cc(-c3cccc4cnccc34)oc12 [Example 33, 2-(isoquinolin-5-yl)-4-[1-(piperidin-4-yl)-1H-pyrazol-4-yl]furo[2,3-c]pyridine-7-amine]
[1]
  IC50: 100 to 1000 nM
[2]
  IC50: 100 to 1000 nM
[3]
  IC50: 100 to 1000 nM

## CC(=O)N1CCC(n2cc(-c3cnc(N)c4oc(-c5ccccc5C#N)cc34)cn2)CC1 [Example 171, 2-{4-[1-(1-acetylpiperidin-4-yl)-1H-pyrazol-4-yl]-7-aminofuro[2,3-c]pyridin-2-yl}benzonitrile]
[1]
  IC50: 1000 to 10000 nM
[2]
  IC50: 100 to 1000 nM
[3]
  IC50: 1000 to 10000 nM

## CC(=O)N1CCC(n2cc(-c3cnc(N)c4oc(-c5cnc6[nH]ccc6c5)cc34)cn2)CC1 [Example 155, 1-(4-{4-[7-amino-2-(1H-pyrrolo[2,3-b]pyridin-5-yl)furo[2,3-c]pyridin-4-yl]-1H-pyrazol-1-yl}piperidin-1-yl)ethanone]
[1]
  IC50: 1000 to 10000 nM
[2]
  IC50: 100 to 1000 nM
[3]
  IC50: 100 to 1000 nM

## CC(=O)N1CCC(n2cc(-c3cnc(N)c4oc(-c5ccc(O)c(Cl)c5)cc34)cn2)CC1 [Example 136, 1-(4-{4-[7-amino-2-(3-chloro-4-hydroxyphenyl)furo[2,3-c]pyridin-4-yl]-1H-pyrazol-1-yl}piperidin-1-yl)ethanone]
[1]
  IC50: 1000 to 10000 nM
[2]
  IC50: 100 to 1000 nM
[3]
  IC50: 100 to 1000 nM

## Cn1cc(-c2cnc(N)c3oc(-c4cccc5cnccc45)cc23)cn1 [Example 70, 2-(isoquinolin-5-yl)-4-(1-methyl-1H-pyrazol-4-yl)furo[2,3-c]pyridin-7-amine]
[1]
  IC50: 100 to 1000 nM
[2]
  IC50: 1000 to 10000 nM
[3]
  IC50: 100 to 1000 nM

## CC(=O)N1CCC(n2cc(-c3cnc(N)c4oc(C5=CCCCC5)cc34)cn2)CC1 [Example 142, 1-(4-{4-[7-amino-2-(cyclohex-1-en-1-yl)furo[2,3-c]pyridin-4-yl]-1H-pyrazol-1-yl}piperidin-1-yl)ethanone]
[1]
  IC50: 1000 to 10000 nM
[2]
  IC50: 100 to 1000 nM
[3]
  IC50: 100 to 1000 nM

## CC(C)N1CCC(n2cc(-c3cnc(N)c4oc(-c5cccc6cnccc56)cc34)cn2)CC1 [Example 79, 2-(isoquinolin-5-yl)-4-{1-[1-(propan-2-yl)piperidin-4-yl]-1H-pyrazol-4-yl]furo[2,3-c]pyridin-7-amine]
[1]
  IC50: 100 to 1000 nM
[2]
  IC50: 100 to 1000 nM
[3]
  IC50: 100 to 1000 nM

## CC(=O)N1CCC(n2cc(-c3cnc(N)c4oc(-c5cc(C(F)(F)F)cc(C(F)(F)F)c5)cc34)cn2)CC1 [Example 91, 1-[4-(4-{7-amino-2-[3,5-bis(trifluoromethyl)phenyl]furo[2,3-c]pyridin-4-yl}-1H-pyrazol-1-yl)piperidin-1-yl]ethanone]
[1]
  IC50: 1000 to 10000 nM
[2]
  IC50: > 10000 nM
[3]
  IC50: 1000 to 10000 nM

## CC(=O)N1CCC(n2cc(-c3cnc(N)c4oc(-c5cccc6[nH]ccc56)cc34)cn2)CC1 [Example 176, 1-(4-{4-[7-amino-2-(1H-indol-4-yl)furo[2,3-c]pyridin-4-yl]-1H-pyrazol-1-yl}piperidin-1-yl)ethanone]
[1]
  IC50: 100 to 1000 nM
[2]
  IC50: < 100 nM
[3]
  IC50: 100 to 1000 nM

## CC(=O)N1CCC(n2cc(-c3cnc(N)c4oc(-c5ccsc5)cc34)cn2)CC1 [Example 174, 1-(4-{4-[7-amino-2-(thiophen-3-yl)furo[2,3-c]pyridin-4-yl]-1H-pyrazol-1-yl}piperidin-1-yl)ethanone]
[1]
  IC50: 1000 to 10000 nM
[2]
  IC50: 100 to 1000 nM
[3]
  IC50: 1000 to 10000 nM

## CC(=O)N1CCC(n2cc(-c3cnc(N)c4oc(-c5ccccc5)cc34)cn2)CC1 [Example 149, 1-{4-[4-(7-amino-2-phenylfuro[2,3-c]pyridin-4-yl)-1H-pyrazol-1-yl]piperidin-1-yl}ethanone]
[1]
  IC50: 1000 to 10000 nM
[2]
  IC50: 1000 to 10000 nM
[3]
  IC50: 100 to 1000 nM

## CC(=O)N1CCC(n2cc(-c3cnc(N)c4oc(-c5c[nH]c6cnccc56)cc34)cn2)CC1 [Example 86, 1-(4-{4-[7-amino-2-(1H-pyrrolo[2,3-c]pyridin-3-yl)furo[2,3-c]pyridin-4-yl]-1H-pyrazol-1-yl}piperidin-1-yl)ethanone]
[1]
  IC50: 1000 to 10000 nM
[2]
  IC50: < 100 nM
[3]
  IC50: 1000 to 10000 nM

## Nc1ncc(-c2cnn(C3CC(=O)C3)c2)c2cc(-c3csc4cnccc34)oc12 [Example 315, 3-[4-(7-amino-2-thieno[2,3-c]pyridin-3-yl-furo[2,3-c]pyridin-4-yl)-pyrazol-1-yl]-cyclobutanone]
[1]
  IC50: 100 to 1000 nM
[2]
  IC50: 100 to 1000 nM
[3]
  IC50: 100 to 1000 nM

## Nc1ncc(-c2cnn(C3CCNCC3)c2)c2cc(-c3ccc4[nH]ncc4c3)oc12 [Example 18, 2-(1H-indazol-5-yl)-4-[1-(piperidin-4-yl)-1H-pyrazol-4-yl]furo[2,3-c]pyridin-7-amine hydrochloride]
[1]
  IC50: 100 to 1000 nM
[2]
  IC50: < 100 nM
[3]
  IC50: 100 to 1000 nM

## Nc1ncc(-c2cnn(C3CCN(CCO)CC3)c2)c2cc(-c3cccc4cnccc34)oc12 [Example 85, 2-(4-{-4-[7-amino-2-(isoquinolin-5-yl)furo[2,3-c]pyridin-4-yl]-1H-pyrazol-1-yl}piperidin-1-yl)ethanol]
[1]
  IC50: 100 to 1000 nM
[2]
  IC50: 100 to 1000 nM
[3]
  IC50: 100 to 1000 nM

## CC(=O)N1CCC(n2cc(-c3cnc(N)c4oc(-c5cccc(C#N)c5)cc34)cn2)CC1 [Example 143, 3-{4-[1-(1-acetylpiperidin-4-yl)-1H-pyrazol-4-yl]-7-aminofuro[2,3-c]pyridin-2-yl}benzonitrile]
[1]
  IC50: 100 to 1000 nM
[2]
  IC50: 100 to 1000 nM
[3]
  IC50: 100 to 1000 nM

## CCN1CCC(n2cc(-c3cnc(N)c4oc(-c5cccc6cnccc56)cc34)cn2)CC1 [Example 78, 4-[1-(1-ethylpiperidin-4-yl)-1H-pyrazol-4-yl]-2-(isoquinolin-5-yl)furo[2,3-c]pyridin-7-amine]
[1]
  IC50: 100 to 1000 nM
[2]
  IC50: 100 to 1000 nM
[3]
  IC50: 100 to 1000 nM

## Nc1ncc(-c2cnn([C@H]3CC[C@H](O)CC3)c2)c2cc(-c3ccc(F)c4cnsc34)oc12 [Example 230, trans-4-{4-[7-amino-2-(4-fluoro-1,2-benzothiazol-7-yl)furo[2,3-c]pyridin-4-yl]-1H-pyrazol-1-yl}cyclohexanol diformate salt]
[1]
  IC50: 100 to 1000 nM
[2]
  IC50: 100 to 1000 nM
[3]
  IC50: 100 to 1000 nM

## CC(=O)N1CCC(n2cc(-c3cnc(N)c4oc(-c5cncc6cnsc56)cc34)cn2)CC1 [Example 262, 1-(4-{4-[7-amino-2-([1,2]thiazolo[4,5-c]pyridin-7-yl)furo[2,3-c]pyridin-4-yl]-1H-pyrazol-1-yl}piperidin-1-yl)ethanone Diformate Salt]
[1]
  IC50: 100 to 1000 nM
[2]
  IC50: 100 to 1000 nM
[3]
  IC50: 100 to 1000 nM

Reference: patent US8378104B2 (OSI Pharmaceuticals, LLC, priority 2010, dated 2013)
